Results on ten compounds are retold here after PubChem BioAssay AID652269 (Broad Institute, 2013).

Where “and” joins values, the source holds several entries; their conditions need not be identical. Equal entries are not always repeated. Calls of active or inactive are those of the source.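 The calls were made as follows: active = median TrxR activity remaining at the top dose below 80%; inactive = the rest.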

The experiment addresses Thioredoxin reductase 1, cytoplasmic (Rattus norvegicus) (UniProt O89049). Nature of the experiment: rat TrxR-driven insulin reduction blockade – biochemical, rat TrxR1, insulin turbidity, dry powder, counter-screen for PDI inhibitor project, dose response (AID 652269). The conditions noted are these: Trx/TrxR/NADPH insulin reduction, turbidity OD650; for TrxR activity remaining % (stronger effect = lower value): at 33.3 µM. For orientation: The purpose of a counterscreen is to sort out artefacts and off-target activity.

For the compound `CCOC(=O)C1(CCOc2ccccc2)CCN(Cc2ccc(O)c(Cl)c2)CC1`, the TrxR activity remaining % (stronger effect = lower value) was 100% (inactive) and 94% (inactive).
The same measure, in the same setting: under `CCOC(=O)c1c(CN2CCN(CCO)CC2)n(-c2ccccc2)c2cc(Br)c(O)cc12` stands 100% (inactive); under `CCOC(=O)C1(CCOc2ccccc2)CCN(Cc2ccc(OC)c(Cl)c2)CC1`, 100% (inactive); under `C/C1=C\C[C@H](OC(=O)c2ccc(O)cc2)/C(C)=C/[C@@H](O)C(C)(C)CCC1`, 97% (inactive).
Regarding `O=C(Nc1ccccc1)C1(CCOc2ccccc2)CCN(Cc2ccc(O)c(Cl)c2)CC1`, the result was inactive.
In the case of `CCOC(=O)C1(CCOc2ccccc2)CCN(Cc2ccc(O)cc2)CC1`, the TrxR activity remaining % (stronger effect = lower value) is 100% (inactive).
On the same count and under the same terms, under `O=C(NC1CCCC1)C1(CCOc2ccccc2)CCN(Cc2ccc(O)c(Cl)c2)CC1` stands 100% (inactive); under `CC(C)(C)OC(=O)C1(CCOc2ccccc2)CCN(Cc2ccc(O)c(Cl)c2)CC1`, 100% (inactive); under `CCOC(=O)C1(CCOc2ccccc2)CCN(C(=O)c2ccc(O)c(Cl)c2)CC1`, 100% (inactive).
On to `CC(C)OC(=O)C1(CCOc2ccccc2)CCN(Cc2ccc(O)c(Cl)c2)CC1`, for which the TrxR activity remaining % (stronger effect = lower value) was 100% (inactive).
